The results in this text go back to article PMC11747586, “Synthesis and Investigation of Peptide–Drug Conjugates Comprising Camptothecin and a Human Protein‐Derived Cell‐Penetrating Peptide” (Chemical Biology & Drug Design, 2025).

Values joined by “and” are separate entries in the source; they are usually repeats but may differ in a detail not shown here. Identical values can stand only once. Residues, ends and D or L forms follow the SMILES beside them. *: point of attachment. S(CH2)2OCO2(CPT-20-yl) = CC[C@@]1(OC(=O)OCCS*)C(=O)OCc2c1cc1n(c2=O)Cc2cc3ccccc3nc2-1

The test system of one data set is HT144 (melanoma) cells. Briefly: cells. How it is done:
(§1) Cell death was measured using resazurin, with 0.1% (v/v) Triton X‐100 as a control for 100% cell death. Data points are expressed as mean ± SD for at least two biological replicates. Dose response curves were fitted using [inhibitor] versus response with variable slope, Graphpad Prism v10. […] RBC lysis was determined by measuring released hemoglobin, with 0.1% (v/v) Triton X‐100 as a control for 100% cell lysis. Melittin was included as a membranolytic control. Data points are expressed as mean ± SD for two technical replicates. Dose response curves were fitted using [inhibitor] versus response with variable slope, Graphpad Prism v10. […] CC50 values are expressed as mean (SEM).
Cell death was measured using resazurin, with 0.1% (v/v) Triton X-100 as a control for 100% cell death. Data points are expressed as mean ± SD for at least two biological replicates. CC50 values are expressed as mean (SEM). Note: CPT-dipeptide-PDIP was not included in this study. c[A]PDIP is a desulfurized variant of cPDIP 2 (see Table S1) to prevent the presence of free thiol during assays. […]
(§2) HaCaT cells were grown in DMEM medium and HT144 cells were grown in RPMI medium supplemented with 2 mM L-glutamine and 10 mM sodium pyruvate. Media were supplemented with 10% (v/v) fetal bovine serum, 100 units/mL of penicillin and […] of streptomycin. Flasks of cultured cells were maintained in a humidified incubator (37 °C, 5% CO2) and passaged every 2–3 days to maintain cultures between 20–90% confluence. Cell line identity was verified by comparing […]
(§3) STR profiles of the cell lines against database entries from the DSMZ-German collection of microorganisms and cell cultures, GmBH https://celldive.dsmz.de/str/browse.
Toxicity to the HT144 and HaCaT cell lines was tested following peptide treatment by measuring the metabolism of resazurin into fluorescent resorufin. The assays were performed with 5000 cells/well (96-well plate) in serum free media. Cells were incubated with serially diluted peptides, PDCs or […]

Data set [1] can be described thus: Parallel artificial membrane permeability assay (PAMPA). It counts as in vitro ADME. Particulars: 4 h; for % recovered (soluble fractions) / Papp at 4 h, 4 μM: 4 μM; for % recovered (soluble fractions): combined apical and basolateral fractions; for Papp at 4 h, 4 μM: PAMPA, apical to basolateral, read-out: apparent permeability (Papp); for degradation during PAMPA experiment: cell-free, PBS, 37 °C. The procedure:
FIGURE 4 (A) Membrane permeability and cellular uptake of PDCs, scaffold peptides, and CPT. Compounds were added to PAMPA wells (4 μM) and incubated for 4 h. Supernatant from apical and basolateral sides of the membrane were collected and analyzed using LC–MS. The amount in the combined soluble fractions was compared to the starting amount to determine % recovery, and the apparent permeability (Papp) was calculated as before (Sevin et al. [2013]). Data is expressed as mean ± SD from a single experiment with three technical replicates. (B) Internalization/cell membrane association of PDCs 12–14 and PDIP with HT144 cells. Cells were treated with PDIP or PDCs (4 μM) for 1 h, washed to remove extracellular compound, then extracted with 75% (v/v) MeCN in mQH2O (containing 1.75% (v/v) TFA), to recover soluble peptide or PDC from precipitated cell proteins. The relative amount of internalized peptide or PDC was determined by integrating area under the curve (AUC) for the [M + 6H]^6+ m/z peak (for the intact mass) using time of flight–mass spectrometry (see Figure S2). […] Data is expressed as mean ± SD from a single experiment with three technical replicates for each treatment and control and was analyzed with ANOVA (Tukey multiple comparisons; **p < 0.01, *p < 0.05). (C) Detection of intracellular CPT following 6 h treatment of HT144 cells with CPT and PDCs 12 and 14. […] Data is expressed as mean ± SD from a single experiment with three technical replicates for each treatment and was analyzed with ANOVA (Fisher multiple paired comparisons; **p < 0.01, *p < 0.05). TEXT PRINTED IN THE PICTURE: (A) PDIP: % recovered (soluble fractions): 94 | (A) 12: % recovered (soluble fractions): 58 | (A) 14: % recovered (soluble fractions): 33 | (A) 15: % recovered (soluble fractions): 40 | (A) c[A] PDIP: % recovered (soluble fractions): 34 | (A) CPT: % recovered (soluble fractions): 92 […]
For the first assay, the PDCs (12–15), scaffold peptides and CPT (4 μM) were added to the apical side of PAMPA monolayers and incubated for 4 h. […] PDIP, CPT, and PDCs 12 and 14 had high permeability (Papp ≥ 2 × 10^−6 cm/s), highlighting that these PDCs maintain membrane permeability with the CPT cargo attached. […] Reliable permeability data were not obtained for PDC 13 because of poor recovery of the PDC from soluble fractions, and degradation during the 4 h PAMPA experiment. […] Instability of the carbonate linkage within CPT conjugates containing a dipeptide linker has been previously reported (Walker et al. [2002]), highlighting the potential incompatibility of this drug–linker combination for CPT PDCs. Considering the observed degradation of 13 in the cell‐free assay, it is also possible that extracellular degradation occurred during the cytotoxicity assays.
Parallel artificial membrane permeability assay (PAMPA)
PAMPA was performed according to the manufacturer instructions for the BD Gentest pre-coated PAMPA plate system (BD Biosciences), as previously described.16 Briefly, peptides and PDCs (4 μM in PBS) were added to the apical side of PAMPA wells and incubated for 4 h at 37 °C, 5% CO2 with 95% humidity. Soluble fractions were recovered from the apical and basolateral sides, and compound concentration was quantified using a Shimadzu LCMS-2020 instrument with a Phenomenex 5 µm C18 / 300 Å / 150 x 2 mm LC column. Data was collected from three technical replicates for each compound. The % recovery was determined from (combined from apical and basolateral fractions) relative to the starting concentration:
Recovery rate : R (%) = (C஺ ×V஺ +C஻ ×V஻ )× 100 where CA and CB are the apical and basolateral concentrations (µM), VA and VB are the apical and basolateral volumes (mL), and C0 is the initial concentration (µM).
The apparent permeability coefficient (Papp) was calculated using the following equations17 and where A is the membrane surface area (cm2): […]
A general note: In PAMPA a lipid-coated filter parts donor from acceptor wells.

The nature of data set [2]: Cytotoxicity (resazurin) against cultured HaCaT noncancerous cells. To be noted: human. The procedure:
as §1, with “(SEM). […]” for “(SEM).”
as §2, §3
Toxicity to the HT144 and HaCaT cell lines was tested following peptide treatment by measuring the metabolism of resazurin into fluorescent resorufin. The assays were performed with 5000 cells/well (96-well plate) in serum free media. Cells were incubated with serially diluted peptides, PDCs or drugs for 72 h or 24 h (37 °C, 5% CO2). PBS and 0.1% (v/v) Triton X-100 were included as controls for 0% and 100% toxicity. Resazurin was added at 0.02% (w/v) final concentration 2 h prior to the assay end point. Fluorescence (λex = 560 nm, λem = 585 nm) was measured using a Tecan infinite M1000Pro multiplate reader. Percentage cytotoxicity was calculated relative to 0% and 100% controls.
Dose-response curves were fitted and CC50 values were determined using [inhibitor] vs response with four parameters with the top constrained to 100% (GraphPad Prism version 10.0.2). Data was collected as three biological replicates, with experiments conducted on different days.
(§4) Red blood cell (RBC) lysis
Human RBCs and serum were obtained from healthy volunteers via the Red Cross Lifeblood, Brisbane, Australia. RBCs were washed three times with PBS and stored in culture medium (RPMI
On the technique in general: The colour change of resazurin is a common sign of viable cells or microbes.

Another data set has as its system human RBCs. Briefly: Red blood cell (RBC) lysis, released hemoglobin. To be noted: 72 h. The procedure: as §1, with “(SEM). […]” for “(SEM).”
as §4
Human RBCs and serum were obtained from healthy volunteers via the Red Cross Lifeblood,
Brisbane, Australia. RBCs were washed three times with PBS and stored in culture medium (RPMI

For orientation: Papp means a coefficient for how fast a substance crosses the barrier. Regarding `CC[C@@]1(O)C(=O)OCc2c1cc1n(c2=O)Cc2cc3ccccc3nc2-1` [CPT, Camptothecin], the “cytotoxic activity against HT144 at 24 h” value in the data set with HT144 (melanoma) cells (24 h incubation, 16 nM to 2 μM (CPT, PDCs), up to 32 μM (peptides)) is on record as “absence of activity”. Moreover, the CC50 in the data set on HT144 (melanoma) cells (Homo sapiens, HT-144, 72 h, read-out: CC50 (half maximal cytotoxicity concentration) HT144) stood at 380 nM. For the same molecule, in data set [1], the “% recovered (soluble fractions)” value is 92% and > 90%; the Papp at 4 h, 4 μM was at least 2 ×10⁻⁶ cm/s. Moreover, the CC50 at 72 h in data set [2] was determined as 570 nM. Further, the “RBC lysis” value with human RBCs (concentration range 16 nM—2 μM) is listed as “did not lyse RBCs”.
`CC[C@H](C)[C@H](NC(=O)CN)C(=O)NCC(=O)N[C@@H](C)C(=O)N[C@H](C(=O)N[C@@H](CC(C)C)C(=O)N[C@@H](CCCCN)C(=O)N[C@H](C(=O)N[C@@H](CC(C)C)C(=O)N[C@H](C(=O)N[C@H](C(=O)NCC(=O)N[C@@H](CC(C)C)C(=O)N1CCC[C@H]1C(=O)N[C@@H](C)C(=O)N[C@@H](CC(C)C)C(=O)N[C@H](C(=O)N[C@@H](CO)C(=O)N[C@@H](Cc1c[nH]c2ccccc12)C(=O)N[C@H](C(=O)N[C@@H](CCCCN)C(=O)N[C@@H](CCCNC(=N)N)C(=O)N[C@@H](CCCCN)C(=O)N[C@@H](CCCNC(=N)N)C(=O)N[C@@H](CCC(N)=O)C(=O)N[C@@H](CCC(N)=O)C(N)=O)[C@@H](C)CC)[C@@H](C)CC)[C@@H](C)O)[C@@H](C)O)C(C)C)C(C)C` [Melittin]: in the data set on human RBCs (human RBCs 0.25% v/v), the “HC10 (minimal hemolytic concentration) RBC” value stood at 1.8 µM. Further, in the data set with human RBCs (human RBCs), the “concentration that completely lysed the RBCs” value turned out to be 8 µM.
As to `CC[C@H](C)[C@@H]1NC(=O)[C@H](CCCCN)NC(=O)[C@H](CCCCN)NC(=O)[C@H](Cc2ccc(O)cc2)NC(=O)[C@H](CC(C)C)NC(=O)[C@@H]2CCCN2C(=O)CNC(=O)CNC(=O)[C@@H](NC(=O)CN)CSSC[C@@H](C(=O)N[C@@H](CCC(=O)O)C(=O)N[C@@H](CO)C(N)=O)NC(=O)[C@H](CC(C)C)NC(=O)[C@H](CCCCN)NC(=O)[C@H](CCCCN)NC(=O)[C@H]([C@@H](C)CC)NC(=O)[C@H]([C@@H](C)CC)NC(=O)[C@H](CCCCN)NC(=O)[C@H](CCCCN)NC(=O)[C@H](Cc2ccc(O)cc2)NC(=O)[C@H](CC(C)C)NC(=O)[C@@H]2CCCN2C(=O)[C@H](C)NC(=O)CNC(=O)CNC(=O)[C@H](Cn2cc(COCCC(=O)N[C@H](C(=O)N[C@@H](CCCNC(N)=O)C(=O)Nc3ccc(COC(=O)O[C@]4(CC)C(=O)OCc5c4cc4n(c5=O)Cc5cc6ccccc6nc5-4)cc3)C(C)C)nn2)NC(=O)CNC(=O)CNC(=O)[C@H](CO)NC(=O)[C@H](CCC(=O)O)NC(=O)[C@H](CC(C)C)NC(=O)[C@H](CC(C)C)NC(=O)[C@H](CCCCN)NC(=O)[C@H](CCCCN)NC(=O)[C@H]([C@@H](C)CC)NC1=O` [PDC 13], in data set [1], the “% recovered (soluble fractions)” value was “poor recovery” and the “degradation during PAMPA experiment” value is listed as “degradation”.
As to `CC[C@H](C)[C@@H]1NC(=O)[C@H](CCCCN)NC(=O)[C@H](CCCCN)NC(=O)[C@H](Cc2ccc(O)cc2)NC(=O)[C@H](CC(C)C)NC(=O)[C@@H]2CCCN2C(=O)[C@H](C)NC(=O)CNC(=O)CNC(=O)[C@H](CSSCCOC(=O)O[C@]2(CC)C(=O)OCc3c2cc2n(c3=O)Cc3cc4ccccc4nc3-2)NC(=O)CNC(=O)CNC(=O)[C@H](CO)NC(=O)[C@H](CCC(=O)O)NC(=O)[C@H](CC(C)C)NC(=O)[C@H](CC(C)C)NC(=O)[C@H](CCCCN)NC(=O)[C@H](CCCCN)NC(=O)[C@H]([C@@H](C)CC)NC(=O)[C@H]([C@@H](C)CC)NC(=O)[C@H](CCCCN)NC(=O)[C@H](CCCCN)NC(=O)[C@H](Cc2ccc(O)cc2)NC(=O)[C@H](CC(C)C)NC(=O)[C@@H]2CCCN2C(=O)[C@H](C)NC(=O)CNC(=O)CNC(=O)[C@H](CO)NC(=O)CNC(=O)CNC(=O)[C@H](CO)NC(=O)[C@H](CCC(=O)O)NC(=O)[C@H](CC(C)C)NC(=O)[C@H](CC(C)C)NC(=O)[C@H](CCCCN)NC(=O)[C@H](CCCCN)NC(=O)[C@H]([C@@H](C)CC)NC1=O` [PDC 15] (cyclo(APLYKKIIKKLLESGGC(S(CH2)2OCO2(CPT-20-yl))GGAPLYKKIIKKLLESGGSGG)), in data set [1], the “% recovered (soluble fractions)” value amounted to 40%; the Papp at 4 h, 4 μM is about 0.9 ×10⁻⁶ cm/s; the “degradation during PAMPA experiment” value is “Negligible degradation”.
